pIC50: −log10 of the molar value. Active and inactive are the calls of the source. The calls are words filed in the database; no cut-off is given here.
What was measured:
[1] = target: T1, Mushroom tyrosinase (Agaricus bisporus) (UniProt O42713+Q00024+C7FF04+C7FF05); experiment: Inhibition of mushroom tyrosinase at 10 uM using L-tyrosine as substrate preincubated for 10 mins followed by substrate addition measured after 20 mins by spectrophotometric method relative to control
[2] = target: T1, Mushroom tyrosinase (Agaricus bisporus); experiment: Inhibition of mushroom tyrosinase at 100 uM using L-tyrosine as substrate preincubated for 10 mins followed by substrate addition measured after 20 mins by spectrophotometric method relative to control
[3] = target: T2, Tyrosinase (Mus musculus) (UniProt P11344); experiment: Inhibition of intracellular tyrosinase activity in mouse B16 cells at 0.05 uM using L-DOPA as substrate preincubated for 24 hrs followed by substrate addition and subsequent incubation for 20 mins measured at 1 min interval for 10 mins by MBTH reagent based spectrophotometric method relative to control; type: cell-based
T2 sequence (whole entry): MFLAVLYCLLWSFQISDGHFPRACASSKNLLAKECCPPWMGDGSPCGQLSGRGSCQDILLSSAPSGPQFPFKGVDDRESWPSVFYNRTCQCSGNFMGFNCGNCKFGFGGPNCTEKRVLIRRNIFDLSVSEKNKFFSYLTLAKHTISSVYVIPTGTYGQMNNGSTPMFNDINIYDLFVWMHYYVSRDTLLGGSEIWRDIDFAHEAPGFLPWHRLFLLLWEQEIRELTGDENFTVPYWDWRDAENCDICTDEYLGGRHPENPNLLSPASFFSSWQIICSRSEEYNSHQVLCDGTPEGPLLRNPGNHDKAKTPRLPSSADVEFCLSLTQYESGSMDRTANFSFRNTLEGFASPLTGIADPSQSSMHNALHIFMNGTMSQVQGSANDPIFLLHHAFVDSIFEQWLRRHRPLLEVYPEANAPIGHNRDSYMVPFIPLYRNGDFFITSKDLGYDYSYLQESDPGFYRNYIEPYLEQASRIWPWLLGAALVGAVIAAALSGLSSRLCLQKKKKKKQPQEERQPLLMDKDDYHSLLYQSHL

[4] = target: T2, Tyrosinase (Mus musculus); experiment: Inhibition of intracellular tyrosinase activity in mouse B16 cells at 5 uM using L-DOPA as substrate preincubated for 24 hrs followed by substrate addition and subsequent incubation for 20 mins measured at 1 min interval for 10 mins by MBTH reagent based spectrophotometric method relative to control; type: cell-based
Mushroom tyrosinase = Mushroom tyrosinase (Agaricus bisporus, UniProt O42713+Q00024+C7FF04+C7FF05); experiment: Inhibition of mushroom tyrosinase using L-tyrosine as substrate preincubated for 10 mins followed by substrate addition measured after 20 mins by spectrophotometric method
Tyrosinase = target: T3, Tyrosinase (Mus musculus, UniProt P11344)
T3 sequence (P11344 whole entry): T2 sequence (whole entry)
Description: Inhibition of tyrosinase in mouse B16 cells assessed as reduction in melanin production measured after 24 hrs

in vitro = conditions: mouse, B16 cells
Description: Cytotoxicity against mouse B16 cells after 24 hrs by MTT assay

B16 = experiment: Inhibition of melanin formation from L-DOPA in mouse B16 cells preincubated for 24 hrs followed by L-DOPA addition and subsequent incubation for 20 mins measured at 1 min interval for 10 mins by MBTH reagent based spectrophotometric method; type: functional, cell-based

SMILES	inhibition [1] [%]	inhibition [2] [%]	inhibition [3] [%]	inhibition [4] [%]	IC50 (Mushroom tyrosinase) [µM]	pIC50 (Tyrosinase)	MNTC at 24 h (in vitro) [µM]	inhibition (B16)
C=CC(C)(C)c1cc(C2CC(=O)c3c(O)cc(O)c(CC=C(C)C)c3O2)c(O)cc1O (stereo not drawn)	90.5	95	20.6	31.8	2.32	6.00	10	–
C=CC(C)(C)c1cc(C2CC(=O)c3c(cc(O)c(CC=C(C)C)c3O)O2)c(OC)cc1O (stereo not drawn)	0	0	–	–	–	5.30	50	Active
CC(C)=CCc1c(O)cc2c(c1O)C(=O)CC(c1ccc(O)c(O)c1CC=C(C)C)O2 (stereo not drawn)	2.84	9.4	–	–	–	6.12	1	Active
C=CC(C)(C)c1cc(C2CC(=O)c3c(O)cc(O)c(CC=C(C)C)c3O2)c(OC)cc1O (stereo not drawn)	21.5	63.8	–	–	49.8	5.30	5	Active

Source: ChEMBL document CHEMBL4007462, “Chemical and bioactivity of flavanones obtained from roots of Dalea pazensis Rusby” (Bioorg Med Chem Lett, 2017)
